Values quoted from earlier work, collected in US6479236B2, “Genotyping the human UDP-glucuronosyltransferase 1 (UGT1) gene” (DNA Sciences Laboratories, Inc., priority 1998, dated 2002).

Columns and labels:
UGT1*1 = molecular target: T1, UGT1*1 (Homo sapiens, UniProt P22309); conditions: for Km: substrate of UGT1*1; for binding to UGT1*1 compared with bilirubin: relative to the endogenous substrate bilirubin
T1 sequence (P22309 26-533): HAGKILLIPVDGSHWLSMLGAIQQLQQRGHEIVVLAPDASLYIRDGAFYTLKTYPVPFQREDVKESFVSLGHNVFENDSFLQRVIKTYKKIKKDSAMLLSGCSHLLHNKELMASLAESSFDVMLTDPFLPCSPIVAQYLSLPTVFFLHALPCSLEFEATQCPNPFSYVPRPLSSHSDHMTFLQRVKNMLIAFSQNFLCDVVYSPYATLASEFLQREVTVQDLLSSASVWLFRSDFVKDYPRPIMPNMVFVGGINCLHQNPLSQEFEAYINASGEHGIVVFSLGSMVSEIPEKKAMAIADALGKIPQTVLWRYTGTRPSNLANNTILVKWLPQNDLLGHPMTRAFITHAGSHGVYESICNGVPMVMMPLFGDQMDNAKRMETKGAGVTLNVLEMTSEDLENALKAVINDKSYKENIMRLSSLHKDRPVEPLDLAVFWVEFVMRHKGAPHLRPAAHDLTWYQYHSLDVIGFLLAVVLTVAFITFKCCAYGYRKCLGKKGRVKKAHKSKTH

UGT1*7 = molecular target: T2, UGT1*7 (Homo sapiens, UniProt O60656); conditions: substrate of UGT1*7
T2 sequence (O60656 26-530): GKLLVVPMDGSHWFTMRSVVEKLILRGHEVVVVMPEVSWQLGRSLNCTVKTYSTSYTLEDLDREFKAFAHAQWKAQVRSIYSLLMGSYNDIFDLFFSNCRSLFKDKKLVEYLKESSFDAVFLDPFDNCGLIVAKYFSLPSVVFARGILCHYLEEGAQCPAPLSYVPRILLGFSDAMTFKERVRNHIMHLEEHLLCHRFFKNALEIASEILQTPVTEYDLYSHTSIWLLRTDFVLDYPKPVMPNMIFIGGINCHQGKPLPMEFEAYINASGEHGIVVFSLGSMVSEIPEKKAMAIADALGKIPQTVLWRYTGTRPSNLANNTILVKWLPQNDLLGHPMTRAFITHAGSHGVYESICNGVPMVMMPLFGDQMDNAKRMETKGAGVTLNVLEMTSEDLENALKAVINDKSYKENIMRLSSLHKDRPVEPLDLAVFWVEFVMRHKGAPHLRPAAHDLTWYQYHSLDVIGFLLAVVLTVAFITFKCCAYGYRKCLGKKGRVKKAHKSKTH

UGT1*6 = UGT1*6 (Homo sapiens, UniProt P19224); conditions: substrate of UGT1*6

Compound | Km (UGT1*1) [µM] | Km (UGT1*7) [µM] | binding to UGT1*1 compared with bilirubin (UGT1*1) | Km (UGT1*6) [µM]
O=C(O)[C@H]1O[C@H](OP(=O)(O)OP(=O)(O)OC[C@H]2O[C@@H](n3ccc(=O)[nH]c3=O)[C@H](O)[C@@H]2O)[C@H](O)[C@@H](O)[C@@H]1O [UDPGA] | 410 | 410 |  | 
CCCCCCCCOC(=O)c1cc(O)c(O)c(O)c1 [Octyl gallate] | 162 | 158 | more readily binds | 
C=CC1=C(C)/C(=C/c2[nH]c(Cc3[nH]c(/C=C4\NC(=O)C(C)=C4C=C)c(C)c3CCC(=O)O)c(CCC(=O)O)c2C)NC1=O [Bilirubin] | 24 |  |  | 
Cc1cc(O)c2c(c1)C(=O)c1cc(O)cc(O)c1C2=O [emodin] |  |  | more readily binds | 
CC(C)c1cccc(C(C)C)c1O [Propofol] |  | 172 |  | 
CC(=O)Nc1ccc(O)cc1 [Acetaminophen] |  | 50000 |  | 2000
